From article PMC11879040, “Advancing systemic toxicity risk assessment: Evaluation of a NAM-based toolbox approach” (Toxicological Sciences, 2024)
Where a name gives a salt, the structure may show the parent alone. Read-outs that look alike come from different tables or passages of the source.

What was measured:
HepG2 cells [1] = experiment: High-throughput transcriptomics (HTTr, TempO-Seq), HepG2, 24 h; format: cell-based, human
Experimental: (§1) HepG2, HepaRG, and MCF7 cells were treated with each compound for 24 h across a dose range of 7 concentrations and lysed using TempO-Seq lysis buffer (BioSpyder Technologies, proprietary kit, see [Middleton et al. 2022] for method details). Sequencing was performed using TempO-Seq (BioClavis) version 2 of the human whole transcriptome panel and analyzed as described previously in Middleton et al.

HepaRG cells = experiment: High-throughput transcriptomics (HTTr, TempO-Seq), HepaRG, 24 h; format: cell-based, human
Experimental: as §1

MCF7 cells = experiment: High-throughput transcriptomics (HTTr, TempO-Seq), MCF7, 24 h; format: cell-based, human
Experimental: as §1

[2] = system: 63 targets with known safety liabilities; experiment: In vitro pharmacological profiling (IPP) panel, screening at 10 or 100 µM and dose response, minimum IC50/AC50; format: biochemical; settings: lowest AC50 across IPP panel (systemic targets); cell_type -; read-out: ipp_lowest_ac50_systemic PoD
[3] = system: Thyroid hormone receptor alpha, THRA (h); experiment: IPP THRA coactivator recruitment (agonist); format: biochemical, human; settings: agonist, T3
Tubulin (r) = experiment: IPP Tubulin binding; design: species or system rat; settings: ligand/control Colchicine
HepG2 cells [4] = experiment: Cell stress panel (CSP), 24 h, 8 concentrations, BIFROST global PoD; format: cell-based; settings: HepG2; cell stress panel PoD
Experimental: Compounds were tested using the previously developed cell stress panel ([Hatherell et al. 2020]) and the expanded biomarker panel outlined in Middleton et al. HepG2 cells were treated with all compounds for 24 h across 8 concentrations prior to biomarker analysis. The same plate layout and number of replicates (3 biological and 2 technical) were used as previously for each assay within the panel.

[5] = system: Glutamate receptor ionotropic NMDA 1 non-selective, GRIN1 (r)
[6] = human
[7] = system: Potassium Voltage-Gated Channel Kv non-selective, KCNQ1 (r); experiment: IPP KCNQ1 binding (antagonist radioligand); design: species or system rat; settings: IPP screening at 100 uM; control α-dendrotoxin
[8] = system: Gamma-aminobutyric acid receptor subunit alpha-1 BZD site, GABRA1A (r); format: binding, rat; settings: IPP screening at 100 uM; control diazepam
[9] = system: Sodium channel protein type 5 subunit alpha (site 2), SCN5A (r); format: binding, rat; settings: IPP screening at 100 uM; control veratridine
[10] = target: T1, Adenosine receptor A2a, ADORA2A (h) (Homo sapiens, UniProt P29274); experiment: IPP ADORA2A binding (agonist radioligand); settings: IPP screening at 100 uM; control NECA
T1 construct: purchased Eurofins Cerep (SafetyScreen44-based IPP panel)
T1 sequence (P29274 whole entry): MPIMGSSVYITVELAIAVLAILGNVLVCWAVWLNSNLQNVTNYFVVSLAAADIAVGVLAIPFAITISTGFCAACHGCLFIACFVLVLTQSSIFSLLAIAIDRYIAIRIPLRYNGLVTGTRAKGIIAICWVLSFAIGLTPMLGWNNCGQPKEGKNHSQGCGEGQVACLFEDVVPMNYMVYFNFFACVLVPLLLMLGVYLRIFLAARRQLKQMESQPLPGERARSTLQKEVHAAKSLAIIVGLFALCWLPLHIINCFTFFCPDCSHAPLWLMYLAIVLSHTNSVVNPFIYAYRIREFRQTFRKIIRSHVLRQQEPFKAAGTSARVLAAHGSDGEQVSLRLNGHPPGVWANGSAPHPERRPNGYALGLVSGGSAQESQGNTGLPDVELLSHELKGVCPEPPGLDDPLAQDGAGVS

[11] = Assignment of risk classifications to benchmark chemical-exposure scenarios; settings: Dermal; […]; Body lotion; Exp1; from table S1
[12] = target: T2, Estrogen receptor, ER1 (h) (Homo sapiens, UniProt P03372); experiment: IPP ER1 coactivator recruitment (agonist); format: biochemical; settings: 100 uM, estriol, * denotes assay interference (2-Amino-6-chloro-4-nitrophenol, HC Red 3)
T2 construct: purchased Eurofins Cerep (SafetyScreen44-based IPP panel)
T2 sequence (P03372 1-595): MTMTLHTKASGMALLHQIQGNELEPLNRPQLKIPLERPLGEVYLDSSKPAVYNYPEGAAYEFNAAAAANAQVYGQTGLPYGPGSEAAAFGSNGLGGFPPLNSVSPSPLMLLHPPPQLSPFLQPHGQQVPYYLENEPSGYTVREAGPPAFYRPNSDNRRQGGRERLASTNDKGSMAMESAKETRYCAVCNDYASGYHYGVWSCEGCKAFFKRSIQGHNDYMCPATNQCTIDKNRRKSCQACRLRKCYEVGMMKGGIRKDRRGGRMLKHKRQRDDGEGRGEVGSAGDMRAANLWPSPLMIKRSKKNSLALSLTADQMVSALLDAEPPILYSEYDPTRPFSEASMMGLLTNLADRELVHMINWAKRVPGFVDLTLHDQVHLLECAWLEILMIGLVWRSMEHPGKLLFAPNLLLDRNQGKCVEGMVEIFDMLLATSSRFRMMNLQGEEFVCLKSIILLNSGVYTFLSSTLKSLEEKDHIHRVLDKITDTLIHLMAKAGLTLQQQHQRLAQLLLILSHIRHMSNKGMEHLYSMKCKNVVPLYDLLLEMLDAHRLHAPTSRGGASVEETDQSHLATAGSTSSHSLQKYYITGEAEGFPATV

[13] = target: T2, Estrogen receptor, ER1 (h); experiment: IPP ER1 coactivator recruitment (antagonist); format: biochemical; settings: 100 uM, estriol, * denotes assay interference (2-Amino-6-chloro-4-nitrophenol, HC Red 3)
[14] = target: Potassium voltage-gated channel subfamily H member 2 hERG, KCNH2 (h) (Homo sapiens, UniProt Q12809); settings: human, 100 µM
Chain of Potassium voltage-gated channel subfamily H member 2 hERG, KCNH2 (h) (Q12809 whole entry): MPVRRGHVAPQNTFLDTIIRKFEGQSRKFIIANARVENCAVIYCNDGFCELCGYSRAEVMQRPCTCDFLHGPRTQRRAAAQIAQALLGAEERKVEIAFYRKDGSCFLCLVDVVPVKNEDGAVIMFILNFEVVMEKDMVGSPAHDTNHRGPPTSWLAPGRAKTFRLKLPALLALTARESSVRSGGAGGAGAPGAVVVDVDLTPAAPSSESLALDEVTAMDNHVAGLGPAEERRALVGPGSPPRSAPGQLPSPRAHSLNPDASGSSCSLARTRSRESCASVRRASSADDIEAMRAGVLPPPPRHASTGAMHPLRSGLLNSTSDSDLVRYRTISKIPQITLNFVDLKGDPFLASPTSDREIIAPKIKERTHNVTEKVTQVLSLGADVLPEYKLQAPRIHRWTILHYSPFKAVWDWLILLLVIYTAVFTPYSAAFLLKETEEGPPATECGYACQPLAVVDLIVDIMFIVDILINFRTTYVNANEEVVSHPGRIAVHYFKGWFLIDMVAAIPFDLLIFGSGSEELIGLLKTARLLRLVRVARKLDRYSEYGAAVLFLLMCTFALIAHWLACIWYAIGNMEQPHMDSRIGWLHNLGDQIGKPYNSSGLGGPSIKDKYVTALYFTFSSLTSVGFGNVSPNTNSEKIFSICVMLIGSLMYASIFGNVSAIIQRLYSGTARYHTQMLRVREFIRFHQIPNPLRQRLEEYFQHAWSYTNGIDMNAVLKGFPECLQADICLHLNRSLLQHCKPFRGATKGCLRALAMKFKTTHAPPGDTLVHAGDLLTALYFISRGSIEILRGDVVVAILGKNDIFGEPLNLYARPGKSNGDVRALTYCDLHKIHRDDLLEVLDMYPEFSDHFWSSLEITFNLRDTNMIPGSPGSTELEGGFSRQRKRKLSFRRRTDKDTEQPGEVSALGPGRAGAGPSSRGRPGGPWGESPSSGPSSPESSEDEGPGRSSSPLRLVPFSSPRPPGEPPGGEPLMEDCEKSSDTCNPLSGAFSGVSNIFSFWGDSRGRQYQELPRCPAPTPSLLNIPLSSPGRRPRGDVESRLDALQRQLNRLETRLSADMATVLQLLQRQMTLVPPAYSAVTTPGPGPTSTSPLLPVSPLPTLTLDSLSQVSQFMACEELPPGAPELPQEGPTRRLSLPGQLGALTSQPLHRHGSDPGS

rat = settings: cited from earlier work
[15] = HepG2, HTTr minimum pathway BMD(L)
[16] = HepaRG, HTTr minimum pathway BMD(L)
[17] = MCF-7, HTTr minimum pathway BMD(L)
[18] = 100 uM, * denotes assay interference (2-Amino-6-chloro-4-nitrophenol, HC Red 3)
[19] = IPP screening at 100 uM, control CGS 19755

SMILES	pod_httr_bifrost PoD (HepG2 cells [1]; HepG2, HTTr BIFROST PoD) [µM]	podl_path_minbmd PoD (HepG2 cells [1]; [15]) [µM]	pod_httr_bifrost PoD (HepaRG cells; HepaRG, HTTr BIFROST PoD) [µM]	podl_path_minbmd PoD (HepaRG cells; [16]) [µM]	pod_httr_bifrost PoD (MCF7 cells; MCF-7, HTTr BIFROST PoD) [µM]	podl_path_minbmd PoD (MCF7 cells; [17]) [µM]	AC50 [2] [nM]	pod_cell_stress PoD (HepG2 cells [4]) [µM]	other results
CCCCOC(=O)c1ccc(O)cc1 [Butyl_4-hydroxybenzoate]	10.9882	46.8548	66.4882	120	0.02978	0.1304	6580		
COc1ccc(O)c(C(C)(C)C)c1 [Butylated_Hydroxyanisole]	9.643	21.4191	6.323	13.7136	8.844	25.2807	600		
O=C(O)COCCN1CCN(C(c2ccccc2)c2ccc(Cl)cc2)CC1 (centres unmarked) [Cetirizine dihydrochloride, (2-{4-[(4-Chlorophenyl)(phenyl)methyl]piperazin-1-yl}ethoxy)acetic acid--hydrogen chloride (1/2)]								67.3241	IPP screening %, Coactivator recruitment ([3]; 10 uM): 2.0%; IPP screening %, Specific binding (Tubulin (r); 10 uM): 14.0%; Specific binding [5]: 1.4%; risk [6]: 1
O=C(O)COCCN1CCN(C(c2ccccc2)c2ccc(Cl)cc2)CC1 (centres unmarked) [Cetirizine_dihydrochloride]	9.8579	120	0.6956	13.467	3.21	78.4644	81		
O=CCCCC=O [Glutaraldehyde Solution]								37.601	
O=CCCCC=O [Glutaraldehyde_Solution]	19.467	50	136.152	500	0.2467	50			
Nc1ccc(NCCO)c([N+](=O)[O-])c1 [HC_Red_3]	0.3766	1.617	0.1851	0.9652	0.8099	25.6755	2170		
NNc1nncc2ccccc12 [Hydralazine_hydrochloride]	1.708	20.4222	1.593	111.897	0.3784	100.098	1200		
CCN(CC)CCNC(=O)c1cc(Cl)c(N)cc1OC [Metclopramide]	16.0473	79.9772	30.9764	92.5373	18.3439	87.28	46	73.2603	
CN(C)[C@@H]1C(O)=C(C(N)=O)C(=O)[C@@]2(O)C(O)=C3C(=O)c4c(O)cccc4[C@@](C)(O)[C@H]3[C@H](O)[C@@H]12 [Oxytetracycline_hydrochloride]	1.6523	24.772	4.2	50.4384	0.6783	10.8661		2.447	
CC(C)(CO)C(O)C(=O)NCCCO (centres unmarked) [Panthenol, 2,4-Dihydroxy-N-(3-hydroxypropyl)-3,3-dimethylbutanamide]	7221.82	20000	65.9596	4552.59	767.225	20000		18298.9	Specific binding [7]: -4.3%; Specific binding [8]: -1.9%; Specific binding [9]: 27.9%; Specific binding [10]: 7.3%; IPP screening %, Coactivator recruitment [3, 18]: 2.0%; IPP screening %, Specific binding (Tubulin (r); 100 uM): -5%; HepaRG HTTr: concentration of single responding probe (HepaRG cells; BIFROST probe-level PoD): < 100 µM; HepaRG HTTr: next lowest probe (HepaRG cells; BIFROST probe-level PoD): 5100 µM; Specific binding [5, 19]: 0.2%; risk [11]: 0
O=S(=O)([O-])NC1CCCCC1.[Na+] [Sodium_Cyclamate]									pod_httr_bifrost PoD (HepG2 cells [1]): 12.9839 µM; podl_path_minbmd PoD (HepG2 cells [1]): 1200 µM; pod_httr_bifrost PoD (HepaRG cells): 485.622 µM; podl_path_minbmd PoD (HepaRG cells): 442.002 µM; pod_httr_bifrost PoD (MCF7 cells): 202.953 µM; podl_path_minbmd PoD (MCF7 cells): 1200 µM
O=C(O)c1ccc2c(c1)C(=O)OC2=O [Trimellitic anhydride, 1,3-Dioxo-1,3-dihydro-2-benzofuran-5-carboxylic acid]									Specific binding [7]: -6.6%; Specific binding [8]: 12.5%; Specific binding [9]: 30.3%; Specific binding [10]: 6.5%; IPP screening %, Coactivator recruitment [12]: 1.0%; IPP screening %, Coactivator recruitment [13]: -1.0%; IPP screening %, Coactivator recruitment [3, 18]: 1.0%; IPP screening %, Specific binding (Tubulin (r); 100 uM): 2%; Specific binding [5, 19]: 9.9%; IPP screening %, Specific binding [14]: -16.7%; PoD (NOEL) (rat; rat, repeat dose, ref ECHA dossier): 300 mg/kg bw/day; NOAEL, dietary intake (rat; repeat dose, before adjustment, ref ECHA dossier): Adjusted from NOAEL of 10000ppm dietary intake - ECHA dossier. Other studies referenced are for trimellitic acid.
O=C(O)c1ccc2c(c1)C(=O)OC2=O [Trimellitic_anhydride]	404.103	1078.54	236.503	100.049	423.806	854.401		34.7606	
COc1ccc(CCN(C)CCCC(C#N)(c2ccc(OC)c(OC)c2)C(C)C)cc1OC (centres unmarked) [Verapamil_hydrochloride]	1.132	8.538	1.688	24.0605	0.3576	10.6709	17		
NC1CCCCC1 [cyclohexylamine]									NOAEL (rat; 90 day rat study, cyclohexylamine administered, ref [19-22]): 100 mg/kg bw/day; dose at which testicular toxicity was observed (rat; testicular atrophy and giant cell formation, ref [19-22]): ≥ 200 mg/kg bw/day
